From patent US20240294988A1, “METHODS OF DETERMINING RESPONSIVENESS TO CHEMOTHERAPEUTIC COMPOUNDS FOR CANCER THERAPY” (Northwestern University, priority 2021, published 2024)
“Also recorded” adds a separate entry of the source.

How the values were obtained:
[1] = mice, systemic delivery of ABX; cited from earlier work
[2] = pharmacologic data and clinical investigations; cited from earlier work
[3] = tested on: H4 SSR3 KO and control cells; test: Microtubule polymerization, alpha-tubulin immunofluorescence in H4 cells; type: cell-based, human; conditions: PTX 0.5 μM, 48 h
Procedure: H4 SSR3 knockout and non-targeting control cells were grown on glass coverslips. […] The cells were then stained with α-tubulin and SSR3 antibodies at 1:100 dilution and the images were acquired on the Nikon A1 (C) confocal microscope. Microtubule bundles per cell cluster were counted for the analysis.

H4 = test: Cell viability assay (PTX dose response, CellTiter Glo) in glioma cell lines; type: cell-based, human; conditions: H4 glioma cell line, PTX dose response curve
Procedure: GBM cells were seeded at a density of 5000 cells per well in a 96 well plate. One day after seeding, cells were checked for attachment and confluence (60-70%). […] 72 hours later cell viability was determined by CellTiter Glo (Promega).

With CC(=O)O[C@H]1C(=O)[C@@]2(C)[C@H]([C@H](OC(=O)c3ccccc3)[C@]3(O)C[C@H](OC(=O)[C@H](O)[C@@H](NC(=O)c4ccccc4)c4ccccc4)C(C)=C1C3(C)C)[C@]1(OC(C)=O)CO[C@@H]1C[C@@H]2O [PTX, Paclitaxel] as the compound, how does the “enhancement of brain penetration of PTX by ultrasound therapy” value [1] read?
The value was 3-5 fold.

What about the “crossing of the BBB” value [2] of the same compound?
The value was “does not cross the BBB”.

And the “effect on microtubule polymerization” value [3]?
Its value is “stabilization of microtubule polymerization”.

What about the “sensitivity to PTX among glioma cell lines” value (H4) of the same compound?
Its value is “most sensitive; also recorded: highest degree of sensitivity”.
